Earlier results on 1 compound are cited in patent publication US5892063A (Hauser, Inc., priority 1997, dated 1999).

In one data set the test system is microtubule. The following applies: relative to paclitaxel; cited from earlier work.
For the next data set, the system named is tumor models. The following applies: vs paclitaxel, cisplatin, cyclophosphamide, doxorubicin; same tumor models; cited from earlier work.
The test system of data set [1] is murine and human xenografts. The conditions noted are these: cited from earlier work.
The conditions of data set [2]: cited from earlier work.
Data set [3] has as its system murine and human tumor cell lines. The conditions noted are these: cited from earlier work.

`CC(=O)O[C@@]12CO[C@@H]1C[C@H](O)[C@@]1(C)C(=O)[C@H](O)C3=C(C)[C@@H](OC(=O)[C@H](O)[C@@H](NC(=O)OC(C)(C)C)c4ccccc4)C[C@@](O)([C@@H](OC(=O)c4ccccc4)[C@H]21)C3(C)C` [Docetaxel, docetaxel]: in the data set with microtubule, the “potency as inhibitor of microtubule depolymerization vs paclitaxel” value is recorded as “twice as potent”. Further, in the data set with tumor models, the “cytotoxic activity vs other antineoplastic agents” value is “higher cytoxic activity than other antineoplastic agents”. Further, the “in vivo preclinical activity” value in data set [1] is reported as “impressive”. The aqueous solubility entry in data set [2] was “low aqueous solubility”. Also, in data set [3], the in vitro cytotoxicity result is on record as “impressive”.
